Source: patent publication US20090012049A1, “Use of an Unsaponifiable Extract of Plant Pulp in the Treatment of Skin Ageing” (priority 2006, published 2009)
“And” between values parts separate entries of the source, which are not always exact repeats. Equal values may be shown once.

Legend:
[1] = system: murine fibroblast line L929; assay: 3D (DNA Damage Detection) test after H2O2 stress; format: cell-based; details: 3 μg/ml, L929 pre-treated 16 hours, H2O2 100 μM 30 minutes; for % DNA protection: basal control 100%, H2O2 stressed 0%
Description: They decided to generate the lesions to DNA by means of H2O2 stress and to analyze indirectly the damage thereby caused, by analyzing the repair reaction. For that purpose, a kit referred to as the 3D (standing for “DNA Damage Detection”) test was used. This biochemical test mimics, in vitro, the repair reaction by means of excision (Salles B. et al Anal. Biochem. 1995; 232: 37-42 and Salles B. et al Biochimie 1999; 81: 53-58). The 3D test is based on the repairing of DNA lesions using purified human cell extracts.
The products were assessed using the murine fibroblast line L929. The cells are pre-treated with the products (Table III) for 16 hours and are then stimulated with H2O2 (Hydrogen Peroxide 3%—Ref. GIFRER—Laboratoire Gifrer Barbezat) at 100 μM for 30 minutes.
The principle is as follows: After damaging the genomic DNA (oxidative treatment), the cells are lysed. The lysate is deposited on a microplate coated with polylysine: • 1—Adsorption of the DNA • 2—Incubation of the DNA with a protein extract (enriched with repair enzymes) and a pool of nucleotides wherein one nucleotide is labeled with biotin (dUTP-Biotin)—Repair of the lesions and incorporation of the “dUTP-Biotin” labeled nucleotides in the DNA. • 3—Incubation with an “Avidin-Peroxidase” enzyme complex—Recognition by the avidin of the incorporated dUTP-Biotin. • 4—Addition of a luminescent peroxidase substrate and quantification of the emitted signal, which is proportional to the number of repaired lesions.
The test performance protocol is followed in accordance with the instructions of the kit supplier (Solyscel 3D Test—Ref: SFRIDN013— AES Laboratoire). At the end of the reaction, the plate is read in a luminometer (MITHRAS LB940-BERTHOLD).
The ratio below allows the percentage protection against the causation of lesions to DNA by oxidative stress to be calculated for each concentration of product tested (the Intensity of Luminescence—or IL—is an expression of the quantity of DNA lesions).
The values indicated in this Table are percentages of inhibition (or % protection) of lesions to DNA following exogenous oxidative stress, compared to “basal control” cells (100%) and “H2O2 stressed” cells (0%).

[2] = system: murine fibroblast line L929; assay: TBARS test: lipid peroxidation after H2O2-Fe2+/Fe3+ stress; format: cell-based; details: L929 pre-treated 16 hours, H2O2-Fe2+/Fe3+ 1 hour
Procedure: In order to assess membrane degradation, the authors of the invention have measured lipid peroxidation by means of an in vitro assay of complexes formed between the products of lipid oxidation and thiobarbituric acid. These complexes are called TBARS (standing for “Thiobarbituric Acid Reactive Substances”) and give their name to the test: the TBARS Test.
In order to mimic chemical oxidative stress, the fibroblast line L929 was treated with a complex composed of hydrogen peroxide (H2O2) and iron (Fe^2+/Fe^3+), accordingly reproducing Fenton's reaction, a source of OFRs and, more particularly, the free hydroxyl radical (OH^∘) (Vessey D. A. et al J. Invest Dermatol. 1992; 99: 859-63): H2O2+Fe^2+→OH^∘+OH^−+Fe^3+.
The products were assessed using the murine fibroblast line L929. The cells are pre-treated with the various concentrations of products (Table I) for 16 hours and then stimulated with the H2O2—Fe^2+/Fe^3+ complex for 1 hour. The LK0304 batch of unsaponifiable extract of pulp of fruit of the argan tree was prepared in accordance with Example 2.
The peroxidation of membrane lipids is analyzed by TBARS measurement (according to Morliére P. et al Biochim. Biophys. Acta. 1991; 1084: 261-268).
In an acid medium, at 95° C., complexes referred to as TBARS (standing for “ThioBarbituric Acid Reactive Substances”) are formed between the lipid oxidation products (malondialdehyde or MDA) and thiobarbituric acid (TBA), which can be fluorescence-assayed relative to a MDA standard series. The TBARS assay value is then expressed in pmol/μg of proteins. The proteins and TBARS are assayed in the intracellular medium.
Starting from the calculation of the TBARS in pmol/μg of proteins, the protective efficacy of the various products against oxidation of the lipid membranes was calculated as follows.

[3] = at a dose lower than the triterpene fraction A devoid of erythrodiol; cited from earlier work
[4] = compared to the triterpene fraction; cited from earlier work

Compound | % lesions to DNA [1] [%] | Intensity of luminescence [1] | % DNA protection [1] [%] | Protection of membrane lipids in % Mean ([2]; 400 μg/ml-928.7 μM) [%] | Protection of membrane lipids in % Mean ([2]; 400 μg/ml-928.7 μM, listed as Vitamin E) | % DNA protection ([1]; listed as erythrodiol) | Toxicity [3] | Protection of membrane lipids in % Mean ([2]; 0.3 μg/ml) | Protection of membrane lipids in % Mean ([2]; 1 μg/ml) [%] | Benefit with respect to UVA and UVB [4]
C=C(C)[C@@H]1CC[C@]2(C)CC[C@]3(C)[C@H](CC[C@@H]4[C@@]5(C)CC[C@H](O)C(C)(C)[C@@H]5CC[C@]43C)[C@@H]12 [Lupeol] | 58.2 | 9020 | 41.8 |  |  |  |  |  |  | 
C[C@H]1[C@H](C)CC[C@]2(C)CC[C@]3(C)C(=CC[C@@H]4[C@@]5(C)CC[C@H](O)C(C)(C)[C@@H]5CC[C@]43C)[C@H]12 [α-Amyrine] | 52.4 | 8663.3 | 47.6 |  |  |  |  |  |  | 
CC1(C)CC[C@]2(C)CC[C@]3(C)C(=CC[C@@H]4[C@@]5(C)CC[C@H](O)C(C)(C)[C@@H]5CC[C@]43C)[C@@H]2C1 [β-Amyrine] | 125.4 | 13133.3 | −25.4 |  |  |  |  |  |  | 
Vitamin E [Vit E] |  |  |  | 56.62 | about 56% |  |  |  |  | 
CC1(C)CC[C@]2(CO)CC[C@]3(C)C(=CC[C@@H]4[C@@]5(C)CC[C@H](O)C(C)(C)[C@@H]5CC[C@]43C)[C@@H]2C1 [Erythrodiol] | 1 | 5520 | 99 |  |  | the most active | toxic | 33% and 33.75% | 38.43 | only mediocre benefit
